According to patent EP0097446B1, “Penicillin derivatives and process for preparation of the same” (TAIHO PHARMACEUTICAL COMPANY LIMITED, priority 1982, dated 1984):
In brackets after ≈: the same amount, converted by molar mass. Where two headings read alike, the source gives them in different places.

Legend:
[1] = biological target: penicillinase (β-lactamase) from Bacillus SP; test: β-lactamase inhibitory activity by microiodometry, penicillin G as substrate; type: biochemical; settings: read-out: 50% Inhibitory Concentration
Protocol: The inhibitory activity against penicillinase (β-lactamase) from Bacillus SP was measured by . microiodometry [Tanpakushitsu Kakusan Koso (Protein Nucleic Acid Enzyme), vol. 23, No. 5, pp 391-400 (1978)] using a penicillin G as a substrate.

[2] = system: 30 strains of coliform bacilli collected from the living body of humans; test: MIC50 and MIC70 against 30 clinical strains, antibiotics alone and combined with present compound; type: cell-based; settings: for MIC70, Present compound as combined with ampicillin: MIC of ampicillin with present compound (10 pg/ml [sic]); for MIC70, Present compound as combined with ampicillin / MIC70, Present compound as combined with cephalexin / MIC70, Present compound as combined with mecillinam / MIC70, Present compound as combined with piperacillin: 70% of 30 strains; for MIC70, Present compound as combined with cephalexin: MIC of cephalexin with present compound (10 pg/ml [sic]); for MIC70, Present compound as combined with mecillinam: MIC of mecillinam with present compound (10 pg/ml [sic]); for MIC70, Present compound as combined with piperacillin: MIC of piperacillin with present compound (10 pg/ml [sic]); for MIC50: Homo sapiens, 20 h, concentration inhibiting growth of 50% of 30 strains
Protocol: (§1) The MIC of ampicillin as combined with the present compound (10 µg/ml) was measured against the same bacteria. In the method, the bacteria cultivated in Mueller Hinton Broth (product of DIFCO) and diluted to 10' CFU/ml were inoculated into the same medium containing ampicillin and the present compound in a specific concentration, and incubated at 37°C for 20 hours. […] The bacteria as used in the test were those capable of producing β-lactamase, among which the bacteria marked ^* in the table are those collected from the living body of human hosts and the others are a stock culture.
The compounds of the present invention, ampicillin, mecillinam, piperacillin and cephalexin, each singly used, were also tested for minimal inhibitory concentration against 30 strains of coliform bacilli collected from the living body of humans. The MIC of each antibiotic as combined with the present compound (10 pg/ml) was likewise measured. Table 4 to 7 indicate the results in which MlC50 and MlC70 indicate the minimal inhibitory concentration for inhibiting the growth of 50% and 70% respectively of the strains. The MICs of the present compounds singly used were all more than 25 µg/ml.

P.vulgaris IID OX—19 = test: MIC by micro-broth dilution method; type: cell-based; settings: Proteus vulgaris, 20 h
Protocol: as §1
(§2) The same test as above was carried out to determine the antibacterial activity of the sodium 2β-(4,5-dimethoxycarbonyl-1,2,3-triazole-1-yl)methyl-2a-methylpenam-3a-carboxylate-1,1-dioxide (Compound 26) obtained in Example 24.

S.aureus ATCC 90124 = test: MIC by micro-broth dilution method; type: cell-based; settings: Staphylococcus aureus, ATCC90124, 20 h
Protocol: as §1, §2

S.marcescens TH—05 = test: MIC by micro-broth dilution method; type: cell-based; settings: Serratia marcescens, 20 h
Protocol: as §1, §2

E.coli TH—13 = test: MIC by micro-broth dilution method; type: cell-based; settings: Escherichia coli, 20 h
Protocol: as §1, §2

P.mirabilis 121—1 = test: MIC by micro-broth dilution method; type: cell-based; settings: Proteus mirabilis, 20 h, Table 3, inoculate 10^7 CFU/ml, singly used
Protocol: as §1, §2

S.aureus S—54 = test: MIC by micro-broth dilution method; type: cell-based; settings: Staphylococcus aureus
Protocol: as §1, §2

E.coli TH—34 = test: MIC by micro-broth dilution method; type: cell-based; settings: Escherichia coli, 20 h, Table 3, inoculate 10^7 CFU/ml, singly used
Protocol: as §1, §2

[3] = biological target: penicillinase (β-lactamase) from Bacillus SP; test: β-lactamase inhibitory activity by pH stat method, penicillin G as substrate; type: biochemical; settings: read-out: 50% β-lactamase inhibitory concentration
P.Mirabilis 121 = test: MIC by micro-broth dilution method; type: cell-based; settings: Proteus mirabilis, 20 h, Table 2, read-out: MIC, Ampicillin (singly used)
Protocol: as §1

E.coli TH—397 = test: MIC by micro-broth dilution method; type: cell-based; settings: Escherichia coli, 20 h, Table 2, read-out: MIC, Ampicillin (singly used)
Protocol: In the method, the bacteria cultivated in Mueller Hinton Broth (product of DIFCO) and diluted to 10' CFU/ml were inoculated into the same medium containing ampicillin and the present compound in a specific concentration, and incubated at 37°C for 20 hours. […] The bacteria as used in the test were those capable of producing β-lactamase, among which the bacteria marked ^* in the table are those collected from the living body of human hosts and the others are a stock culture.

[4] = concentration inhibiting growth of 70% of 30 strains
[5] = Table 3, inoculate 10^7 CFU/ml, singly used, read-out: MIC, Comp. 26
[6] = Table 2, read-out: MIC, Ampicillin (singly used)
[7] = Table 3, inoculate 10^7 CFU/ml, singly used, read-out: MIC, Ampicillin

## C[C@]1(Cn2ccnn2)[C@H](C(=O)O)N2C(=O)C[C@H]2S1(=O)=O [Compound 22, sodium 2α-methyl-2β-(1,2,3-triazole-1-yl)-methylpenam-3α-carboxylate-1,1-dioxide]
[1]
  IC50: 690 nM
[2]
  MIC70, Present compound as combined with ampicillin: 6.25 µg/mL
  MIC70, Present compound as combined with cephalexin: 50 µg/mL
  MIC70, Present compound as combined with mecillinam: 0.2 µg/mL
  MIC70, Present compound as combined with piperacillin: 1.56 µg/mL

## C[C@]1(Cn2nncc2C(=O)O)[C@H](C(=O)O)N2C(=O)C[C@H]2S1(=O)=O [Compound 17, dipotassium 2β-(5-carboxy-1,2,3-triazole-1-yl)methyl-2α-methylpenam-3α-carboxylate-1,1-dioxide]
[1]
  IC50: 1700 nM
[2]
  MIC70, Present compound as combined with ampicillin: 100 µg/mL
  MIC70, Present compound as combined with cephalexin: 12.5 µg/mL
  MIC70, Present compound as combined with mecillinam: 0.39 µg/mL
  MIC70, Present compound as combined with piperacillin: 50 µg/mL

## CC1(C)S[C@@H]2[C@H](/N=C/N3CCCCCC3)C(=O)N2[C@H]1C(=O)O [Mecillinam, mecillinam, reference compound]
[2]; read-out: MIC50, Mecillinam singly used
  MIC50: 3.13 µg/mL
[2]; [4]
  MIC70, Mecillinam singly used: 12.5 µg/mL

## CCOC(=O)c1cn(C[C@@]2(C)[C@H](C(=O)O)N3C(=O)C[C@H]3S2(=O)=O)nn1 [Compound 7, sodium 2β-(4-ethoxycarbonyl-1,2,3-triazole-1-yl)methyl-2α-methylpenam-3α-caboxylate-1,1-dioxide]
[1]
  IC50: 54 nM
[2]
  MIC70, Present compound as combined with ampicillin: 50 µg/mL
  MIC70, Present compound as combined with cephalexin: 100 µg/mL
  MIC70, Present compound as combined with mecillinam: 0.39 µg/mL
  MIC70, Present compound as combined with piperacillin: 6.25 µg/mL

## COC(=O)c1nnn(C[C@@]2(C)[C@H](C(=O)O)N3C(=O)C[C@H]3S2(=O)=O)c1C(=O)OC [Compound 26, sodium 2β-(4,5-dimethoxycarbonyl-1,2,3-triazole-1-yl)-methyl-2α-methylpenam-3α-carboxylate-1,1-dioxide]
P.vulgaris IID OX—19; [5]
  MIC: 25 µg/mL
S.aureus ATCC 90124; [5]
  MIC: > 50 µg/mL
S.marcescens TH—05; [5]
  MIC: > 50 µg/mL
E.coli TH—13; [5]
  MIC: > 50 µg/mL
P.mirabilis 121—1; read-out: MIC, Comp. 26
  MIC: > 50 µg/mL
S.aureus S—54; 20 h, Table 3, inoculate 10^7 CFU/ml, singly used, read-out: MIC, Comp. 26
  MIC: > 50 µg/mL
E.coli TH—34; read-out: MIC, Comp. 26
  MIC: > 50 µg/mL
[3]
  IC50: 300 nM

## CCOC(=O)c1cnnn1C[C@@]1(C)[C@H](C(=O)O)N2C(=O)C[C@H]2S1(=O)=O [Compound 11, sodium 2β-(5-ethoxycarbonyl-1,2,3-triazole-1-yl)methyl-2α-methylpenam-3α-carboxylate-1,1-dioxide]
[1]
  IC50: 340 nM
[2]
  MIC70, Present compound as combined with ampicillin: 100 µg/mL
  MIC70, Present compound as combined with cephalexin: 100 µg/mL
  MIC70, Present compound as combined with mecillinam: 0.39 µg/mL
  MIC70, Present compound as combined with piperacillin: 25 µg/mL

## CC1(C)S[C@@H]2[C@H](NC(=O)[C@H](N)c3ccccc3)C(=O)N2[C@H]1C(=O)O [Ampicillin, ampicillin]
P.Mirabilis 121
  MIC: > 400 µg/mL
P.vulgaris IID OX—19; [6]
  MIC: 100 µg/mL (≈ 286 µM)
P.vulgaris IID OX—19; [7]
  MIC: 25 µg/mL (≈ 71.5 µM)
S.aureus ATCC 90124; [6]
  MIC: 25 µg/mL (≈ 71.5 µM)
S.aureus ATCC 90124; [7]
  MIC: 50 µg/mL (≈ 143 µM)
S.marcescens TH—05; [6]
  MIC: > 400 µg/mL
S.marcescens TH—05; [7]
  MIC: 800 µg/mL (≈ 2290 µM)
E.coli TH—13; [6]
  MIC: 400 µg/mL (≈ 1140 µM)
E.coli TH—13; [7]
  MIC: 400 µg/mL (≈ 1140 µM)
P.mirabilis 121—1; read-out: MIC, Ampicillin
  MIC: 800 µg/mL (≈ 2290 µM)
S.aureus S—54; 20 h, Table 3, inoculate 10^7 CFU/ml, singly used, read-out: MIC, Ampicillin
  MIC: 100 µg/mL (≈ 286 µM)
S.aureus S—54; Table 2, 37°C, 20 hours, read-out: MIC, Ampicillin (singly used)
  MIC: 25 µg/mL (≈ 71.5 µM)
E.coli TH—34; read-out: MIC, Ampicillin
  MIC: 800 µg/mL (≈ 2290 µM)
E.coli TH—397
  MIC: 400 µg/mL (≈ 1140 µM)
[2]; read-out: MIC50, Ampicillin singly used
  MIC50: 400 µg/mL
[2]; [4]
  MIC70, Ampicillin singly used: >400 µg/mL

## C[C@]1(Cn2cc([Si](C)(C)C)nn2)[C@H](C(=O)O)N2C(=O)C[C@H]2S1(=O)=O [Compound 24, sodium 2α-methyl-2β-(4-trimethylsilyl-1,2,3-triazole-1-yl)-methylpenam-3α-carboxylate-1,1-dioxide]
[1]
  IC50: 510 nM

## COC(=O)c1cn(C[C@@]2(C)[C@H](C(=O)O)N3C(=O)C[C@H]3S2(=O)=O)nn1 [Compound 12, sodium 2β-(4-methoxycarbonyl-1,2,3-triazole-1-yl)methyl-2a-methylpenam-3α-carboxylate-1,1-dioxide]
[1]
  IC50: 49 nM

## C[C@]1(Cn2nnc(C(=O)O)c2C(=O)O)[C@H](C(=O)O)N2C(=O)C[C@H]2S1(=O)=O [Compound 39, tri-sodium 2β-(4,5-dicarboxy-1,2,3-triazole-1-yl)methyl-2α-methylpenam-3α-carboxylate-1,1-dioxide]
[1]
  IC50: 2300 nM

## CCN1CCN(C(=O)N[C@@H](C(=O)N[C@@H]2C(=O)N3[C@@H]2SC(C)(C)[C@@H]3C(=O)O)c2ccccc2)C(=O)C1=O [Piperacillin, piperacillin, reference compound]
[2]; read-out: MIC50, Piperacillin singly used
  MIC50: 50 µg/mL
[2]; [4]
  MIC70, Piperacillin singly used: 200 µg/mL

## C[C@]1(Cn2cc(C(=O)O)nn2)[C@H](C(=O)O)N2C(=O)C[C@H]2S1(=O)=O [Compound 16, dipotassium 2β-(4-carboxy-1,2,3-triazole-1-yl)methyl-2α-methylpenam-3α-carboxylate-1,1-dioxide]
[1]
  IC50: 600 nM
[2]
  MIC70, Present compound as combined with ampicillin: 6.25 µg/mL
  MIC70, Present compound as combined with cephalexin: 25 µg/mL
  MIC70, Present compound as combined with mecillinam: 0.1 µg/mL
  MIC70, Present compound as combined with piperacillin: 3.13 µg/mL

## CC1=C(C(=O)O)N2C(=O)[C@@H](NC(=O)[C@H](N)c3ccccc3)[C@H]2SC1 [Cephalexin, cephalexin, reference compound]
[2]; read-out: MIC50, Cephalexin singly used
  MIC50: 25 µg/mL
[2]; [4]
  MIC70, Cephalexin singly used: 100 µg/mL

## COC(=O)c1cnnn1C[C@@]1(C)[C@H](C(=O)O)N2C(=O)C[C@H]2S1(=O)=O [Compound 13, sodium 2β-(5-methoxycarbonyl-1,2,3-triazote-1-yl)methyl-2α-methylpenam-3α-carboxylate-1,1-dioxide]
[1]
  IC50: 300 nM
